Data on four compounds can be found in US20260315612A1, “Topoisomerase Inhibitors, Methods of Making, and Methods of Use Thereof” (NJ Bio, Inc., priority 2023, published 2026).

The experiment deals with SKBR-3 cell line (human breast cancer). Put plainly: Cytotoxicity Assay (Cell titer glo, 72 h), SKBR-3. Format: cell-based. To be noted: for IC50: Homo sapiens, SK-BR-3, free payloads, 72 hours; for Normalized IC50 (PL IC50/DXD IC50): ratio of payload IC50 to DXD control IC50. On the procedure:
Day 1: 2,000 cells/well were plated and incubated at 37° C. overnight.
Day 2: Payload/ADC/vehicle control dilutions were made in respective media and added to cells. Volume added: 50 uL to each well. Starting treatment concentration was 1 mM for free payloads/1 μM for ADC's/10% for vehicle control and then diluted 10-fold down for a total of 11 treatment dilutions. Each concentration was analyzed in triplicates. Media-only wells were used as a control to calculate percent viability.
Day 5: Cell titer glow reagent (volume: 50 uL) was added to each well, the plate was shaken for 5 mins and the luminescence was recorded. Drug Treatment Time: 72 hours. Data Analysis: Percent viability was calculated by dividing the luminescence signal obtained for each treated well by the untreated well (media-only control) and multiplying by 100. Data was next transformed using X=Log (x) and then analyzed with nonlinear regression (curve fit), Dose Response inhibition−log (inhibitor) vs response (3 parameters) using PRISM software to determine the IC50 value.

With `CC[C@@]1(O)C(=O)OCc2c1cc1n(c2=O)Cc2c-1nc1cc(F)c(C)cc1c2Cn1cc(-c2ccccc2NC(=O)CN)nn1` [Payload 66], it took 54.7 nM to reach half-maximal inhibition (IC50) and the “Normalized IC50 (PL IC50/DXD IC50)” value is given as 3.58.
The corresponding values for `CC[C@@]1(O)C(=O)OCc2c1cc1n(c2=O)Cc2c-1nc1cc(F)c(C)cc1c2Cn1cc(-c2ccc(NC(=O)CN)cc2)nn1` [Payload 67] are 9.15 nM and 0.60.
For `CC[C@@]1(O)C(=O)OCc2c1cc1n(c2=O)Cc2c-1nc1cc(F)c(C)cc1c2Cn1cc(CCCNC(=O)CO)nn1` [Payload 68], in that order: 17.6 nM and 19.01.
The corresponding values for `CC[C@@]1(O)C(=O)OCc2c1cc1n(c2=O)Cc2c-1nc1cc(F)c(C)cc1c2Cn1cc(C(C)(C)NC(=O)CO)nn1` [Payload 69] are 95.8 nM and 104.13.
